Source: patent publication US20130237582A1, “PHARMACEUTICAL COMBINATION OF PACLITAXEL AND A CDK INHIBITOR” (Piramal Enterprises Limited, priority 2010, published 2013)

How the values were obtained:
MDA-MB-468 [1] = experiment: Cell cycle progression and apoptosis by flow cytometry (sub-G1); type: cell-based, human; details: 50 μM
Method: Before analysis, cells were washed twice with PBS to remove the fixative and re-suspended in PBS containing 50 μg/mL propidium iodide and 50 μg/mL RNaseA. After incubation at room temperature (20-35° C.) for 20 min, cells were analyzed using flow cytometry. A Becton Dickinson FACS Calibur flow cytometer (BD, USA) was used for these studies. The argon ion laser set at 488 nm was used as an excitation source. Cells with DNA content between 2n and 4n were designated as being in G1, S and G2/M phases of the cell cycle, as defined by the level of red fluorescence. […] The number of cells in each cell cycle compartment was expressed as a percentage of the total number of cells present. The results are shown in Table 3 and graphically presented in FIG. 3A (MCF-7 cell lines) and FIG. 3B (MDA-MB-231 cell lines).
Comparison of the effect of Compound A and PARP inhibitor BSI-201 (Iniparib developed by Sanofi-Aventis. BSI-201 is prepared in-house) on cell cycle progression and apoptosis was evaluated in two TNBC cell lines. The asynchronous human TNBC cell lines MDA-MB-231 and MDA-MB-468 were seeded in […] tissue culture flask at a density of 0.5×10^6 cells per flask in RPMI 1460 with 10% FCS. After 24 h, cells were treated either with 1.5 and 3.0 μM of Compound A or 50 μM of PARP inhibitor BSI-201 for 72 h. After the incubation cells were harvested (trypsinised) and processed as given in example 6.

VEGF = VEGF reporter gene based assay (M-9 cells); type: cell-based; details: Homo sapiens, hypoxia, 20-24 h, read-out: IC50 for VEGF inhibition under hypoxia
Method: A cell line M-9 is MDA-MB-231 which is stably co-transfected with the VEGF-Luc construct (VEGF promoter in pGL2-basic) and a plasmid containing the Geneticin (G418) resistance gene which forms VEGF promoter reporter gene. The expression of the reporter gene in the clone cells, as measured by luciferase activity, is stable.
The effect of Compound A on VEGF inhibition was evaluated using the VEGF reporter gene based assay.
Lysis Assay Buffer (1×) • Tris-Phosphate (pH 7.8)-125 mM, DTT-10 mM, EDTA-10 mM, Glycerol-50% and Triton X-100-5%.
Luciferase Assay Reagent (LAR) • Luciferase Assay Buffer-8 mL, 530 μM ATP-530 μL, 270 μM CoA-1 mL and 170 μM Luciferin-1 mL.
Luciferase Assay Buffer (LAB) (1×) • Tricin (pH 7.8)-20 mM, Magnesia Alba-1.07 mM, MgSO4-2.67 mM, EDTA-0.1 mM and DTT-33.3 mM. ATP Stock made in LAB=5.85 mg/mL CoA Stock made in LAB=2.1 mg/mL Luciferin Stock made in LAB=1.5 mg/mL
1. M-9 cells were sub-cultured and maintained in RPMI-1640 Medium with supplement of 10% FBS, and 4 μL/ml G418 (Stock 100 mg/mL) in a humidified incubator at 37° C. and 5% CO2. 2. Cells were seeded at density of 3×10^4 cells/well in 180 μL volume in tissue culture grade 96 well white plates as well as transparent plates and allowed to adhere for 16-20 h in humidified CO2 incubator (5% CO2) at 37° C. A total of two sets of plates were made, as the incubation conditions are different. 3. Compound A, Sutent® and BSI-201 were diluted in medium serially so that final desired concentrations are achieved in the respective wells. (not more than 0.5% concentration of DMSO in the wells). 4. INCUBATION CONDITIONS: One set of plates are incubated under ambient atmospheric condition with 5% CO2, referred hereafter as NORMOXIC/OXIC PLATE. […] To all the wells, 100 μL Luciferase Assay Reagent (LAR) are added, plates are immediately read for Luminescence on TOPCOUNT™ (Packard, USA). The percentage inhibitions and Inhibitory Concentration (IC50) or Effective Concentration (EC50) are calculated in comparison with Control (untreated) values. […]

MDA-MB-231 [2] = experiment: Cytotoxicity assay using propidium iodide (PI); type: cell-based, human; details: Homo sapiens, 48 h treatment, PI assay
Method: (§1) The propidium iodide fluorescence assay (PI) was carried out according to the procedure mentioned in Anticancer Drugs, 1995, 6, 522-32. The assay was developed to characterize the in vitro growth of human tumor cell lines as well as to test the cytotoxic activity of the compounds. Propidium iodide (PI) was used as a dye, which penetrates only damaged cellular membranes. Intercalation complexes are formed by PI with double-stranded DNA, which effect an amplification of the fluorescence. After freezing the cells at −20° C. for 24 h, PI had access to total DNA leading to total cell population counts. Background readings were obtained from cell-free wells containing media and propidium iodide. The human breast cancer cell lines (i.e. […] Control wells were treated with vehicle (DMSO). At the end of the incubation periods, the plates were assayed using PI cytotoxicity assay protocol. Percent cytoxicity was calculated at various drug concentrations and from the graph plotted the IC50 values were determined.

MDA-MB-231 [3] = experiment: Combination in vitro cytotoxicity (PI) assay; type: cell-based; details: Homo sapiens, then CM 72 h, read-out: % inhibition of Group IA
Method: The propidium iodide fluorescence assay (PI) was carried out according to the procedure mentioned in Anticancer Drugs, 1995, 6, 522-32.
The assay was developed to characterize the in vitro growth of human tumor cell lines as well as to test the cytotoxic activity of the test compounds. Propidium iodide (PI) was used as a dye, which penetrates only, damaged cellular membranes. Intercalation complexes are formed by PI with double-stranded DNA, which effect an amplification of the fluorescence. After freezing the cells at −20° C. for 24 h, PI had access to total DNA leading to total cell population counts. Background readings were obtained from cell-free wells containing media and propidium iodide.
The human triple negative breast cancer cell line, MDA-MB-231 was seeded at a density of 1500-3000 cells/well in 180 μL of RPMI-1640 medium in a 96-well plate and incubated for about 16 h in humidified 5% CO2 incubator at 37±1° C. to allow the cells to adhere. The schedule consists of six treatment groups. In every treatment group, 20 μL of 10× compound (dissolved first in DMSO and then diluted in cell medium, final DMSO concentration not exceeding 0.5%) was used in the wells and the plate was incubated in humidified 5% CO2 incubator at 37±1° C. The medium was removed from the wells and washed with PBS. 100 μL of PI working solution (7 μg/mL) per well was added and the plates were stored at −80° C. for about 16 h. The plates were thawed and the fluorescence was measured using the POLARstar optima plate reader (USA) at excitation 536 nm and emission 590 nm.
(PI stock solution of 1 mg/mL was prepared by dissolving 1 mg PI in 1 mL of distilled water. PI working solution was prepared by adding 140 μL of stock solution to PBS to make up the volume to […] (7 μg/mL)).
The synergistic effects in TNBC MDA-MB-231 cell line have been evaluated using the CompuSyn software by Chou and Talalay, described in Pharmacological Reviews, 2006, 58, 621-681. Combination index (CI) is used to evaluate if a combination is additive, synergistic or antagonistic. CI<1 is synergistic, CI=1 is additive and CI>1 is antagonistic.

MDA-MB-468 [4] = experiment: Cytotoxicity assay using propidium iodide (PI); type: cell-based, human; details: Homo sapiens, 48 h treatment, PI assay
Method: as §1

BT-549 = experiment: Cytotoxicity assay using propidium iodide (PI); type: cell-based; details: Homo sapiens, 48 h treatment
Method: as §1

IC50 (VEGF) [µM]	Structure (SMILES)	% apoptosis at 72 h (MDA-MB-468 [1]) [%]	IC50 (MDA-MB-231 [2]) [µM]	inhibition at 0.03 µM (MDA-MB-231 [3]; paclitaxel 0.03 μM 24 h) [%]	inhibition at 0.1 µM (MDA-MB-231 [3]; paclitaxel 0.1 μM 24 h) [%]	inhibition at 0.3 µM (MDA-MB-231 [3]; paclitaxel 0.3 μM 24 h) [%]	inhibition at 1 µM (MDA-MB-231 [3]; paclitaxel 1.0 μM 24 h) [%]	inhibition at 3 µM (MDA-MB-231 [3]; paclitaxel 3.0 μM 24 h) [%]	IC50 (MDA-MB-468 [4]) [µM]	IC50 (BT-549) [µM]
> 100	NC(=O)c1ccc(I)c([N+](=O)[O-])c1 [BSI-201, reference compound]	12.67	–	–	–	–	–	–	–	–
–	CC(=O)O[C@H]1C(=O)[C@@]2(C)[C@H]([C@H](OC(=O)c3ccccc3)[C@]3(O)C[C@H](OC(=O)[C@H](O)[C@@H](NC(=O)c4ccccc4)c4ccccc4)C(C)=C1C3(C)C)[C@]1(OC(C)=O)CO[C@@H]1C[C@@H]2O [Paclitaxel]	–	0.9	-2.6	8.3	82.9	88.7	89.1	–	–
15	CCN(CC)CCNC(=O)c1c(C)[nH]c(/C=C2\C(=O)Nc3ccc(F)cc32)c1C [Sunitinib, reference compound]	–	7.8	–	–	–	–	–	10	18
